Laboratory results published in ChEMBL document CHEMBL1129576, “Nucleosides and nucleotides. 158. 1-(3-C-ethynyl-beta-D-ribo-pentofuranosyl)-cytosine, 1-(3-C-ethynyl-beta-D-ribo-pentofuranosyl)uracil, and their nucleobase analogues as new potential multifunctional antitumor nucleosides with a broad spectrum of activity” (J Med Chem, 1996).

Columns and labels:
L1210 = experiment: In vitro tumor cell growth inhibitory activity against mouse leukemia L1210 cell lines.; format: functional, cell-based
KB = experiment: In vitro tumor cell growth inhibitory activity against human nasopharyngeal KB cell lines; format: functional, cell-based
HOS = experiment: In vitro tumor cell growth inhibitory activity against Human osteosarcoma cell lines. HOS; format: functional, cell-based
NUGC-4 = experiment: In vitro tumor cell growth inhibitory activity of Human stomach (adenocarcinoma) cell lines. NUGC-4; format: functional, cell-based
Mus musculus [1] = experiment: In vivo tumor cell growth inhibitory activity of CO-3 tumor xenograft of […] in nude mice at a concentration of 0.25 mg/kg for 10 days; format: functional
Lu-65 = experiment: In vitro tumor cell growth inhibitory activity against Human lung large-cell carcinoma Lu-65 cell lines.; format: functional, cell-based
PC-8 = experiment: In vitro tumor cell growth inhibitory activity against Human lung (adenocarcinoma) cell lines. PC-8; format: functional, cell-based
T-24 = experiment: In vitro tumor cell growth inhibitory activity against Human bladder carcinoma cell lines. T24; format: functional, cell-based
Mus musculus [2] = experiment: In vivo inhibitory activity against H-31 cells tumor xenograft of breast in nude mice at a concentration of 0.25 mg/kg for 10 days; format: functional
fLS = experiment: In vitro tumor cell growth inhibitory activity of Human stomach (adenocarcinoma) cell lines. fLS; format: functional, cell-based
[3] = In vitro tumor cell growth inhibitory activity against Human lung squamous-cell carcinoma cell lines QG-95; format: functional
SW48 = experiment: In vitro tumor cell growth inhibitory activity against i Human colon (adenocarcinoma) cell lines. SW-48; format: functional, cell-based
PANC-1 = experiment: In vitro tumor cell growth inhibitory activity against Human pancreas (adenocarcinoma) cell lines. PANC-1; format: functional, cell-based
QG-56 = experiment: In vitro tumor cell growth inhibitory activity against Human lung squamous-cell carcinoma cell linesQG-56; format: functional, cell-based
NCI-H417 = experiment: In vitro tumor cell growth inhibitory activity against Human lung small-cell carcinoma cell NCI-H-417; format: functional, cell-based
MCF7 = experiment: In vitro tumor cell growth inhibitory activity against Human breast (adenocarcinoma) cell lines. MCF-7; format: functional, cell-based
A-431 = experiment: In vitro tumor cell growth inhibitory activity against Human […] A431 cell lines; format: functional, cell-based
MKN-45 (Homo sapiens) = experiment: In vitro tumor cell growth inhibitory activity against Human stomach (adenocarcinoma) cell lines. MKN-45
[4] = In vitro tumor cell growth inhibitory activity against Human stomach (adenocarcinoma) cell lines STSA-1
ST-KM-1 = experiment: In vitro tumor cell growth inhibitory activity against Human stomach (adenocarcinoma) cell linesST-KM; format: functional, cell-based
MG-63 = experiment: In vitro tumor cell growth inhibitory activity against Human osteosarcoma cell lines MG-63.; format: functional, cell-based
Mus musculus [5] = experiment: In vivo tumor cell growth inhibitory activity against NUGC-3 tumor xenograft of stomach in nude mice at a concentration of 0.25 mg/kg for 10 days; format: functional
NCI-H82 (Homo sapiens) = experiment: In vitro tumor cell growth inhibitory activity against Human lung small-cell carcinoma cellc) NCI-H-82
NAKAJIMA = experiment: In vitro tumor cell growth inhibitory activity against Human stomach (adenocarcinoma) cell lines. h) NAKAJIMA; format: functional, cell-based
Mus musculus [6] = experiment: In vivo inhibitory activity against DLD-1 tumor xenograft of colon in nude mice at a concentration of 0.25 mg/kg for 10 days; format: functional
KK-47 cell line = experiment: In vitro tumor cell growth inhibitory activity against Human bladder carcinoma cell lines. kK-47; format: functional, cell-based
Mus musculus [7] = experiment: In vivo tumor cell growth inhibitory activity against CO-3 tumor xenograft of colon in nude mice at a concentration of 0.25 mg/kg for 10 days; format: functional
MDA-MB-231 = experiment: In vitro tumor cell growth inhibitory activity against Human breast (adenocarcinoma) cell lines. […]; format: functional, cell-based
Mus musculus [8] = experiment: In vivo inhibitory activity against JRC-11 cells tumor xenograft of renal in nude mice at a concentration of 0.25 mg/kg for 10 days; format: functional
QG-96 = experiment: In vitro tumor cell growth inhibitory activity against Human lung small-cell carcinoma cellb) QG-96; format: functional, cell-based
QG-90 = experiment: In vitro tumor cell growth inhibitory activity against Human lung small-cell carcinoma cell lines. QG-90; format: functional, cell-based
MKN-28 = experiment: In vitro tumor cell growth inhibitory activity against Human stomach (adenocarcinoma) cell lines. MKN-28; format: functional, cell-based
PC10 = experiment: In vitro tumor cell growth inhibitory activity against Human lung (adenocarcinoma) cell lines PC-10; format: functional, cell-based
COLO 320DM = experiment: In vitro tumor cell growth inhibitory activity against i Human colon (adenocarcinoma) cell lines. COLO 320DM; format: functional, cell-based
[9] = tested on: MIA PaCa-2 (Homo sapiens); experiment: In vitro tumor cell growth inhibitory activity against Human pancreas (adenocarcinoma) cell Mia-PaCa-2
SW480 = experiment: In vitro tumor cell growth inhibitory activity against i Human colon (adenocarcinoma) cell lines. SW-480; format: functional, cell-based
Mus musculus [10] = experiment: In vivo inhibitory activity against Hucc-T1 cells tumor xenograft of bile duct in nude mice at a concentration of 0.25 mg/kg for 10 days; format: functional
Mus musculus [11] = experiment: In vivo inhibitory activity against PAN-12 tumor xenograft of pancreas in nude mice at a concentration of 0.25 mg/kg for 10 days; format: functional
A-375 = experiment: In vitro tumor cell growth inhibitory activity against Human melanoma cell lines A375; format: functional, cell-based
PC-9 = experiment: In vitro tumor cell growth inhibitory activity against Human lung (adenocarcinoma) cell lines PC-9; format: functional, cell-based
Mus musculus [12] = experiment: In vivo tumor cell growth inhibitory activity against KM12C tumor xenograft of […] in nude mice at a concentration of 0.25 mg/kg for 10 days; format: functional
[13] = tested on: KATO III stomach cancer cell line; experiment: In vitro tumor cell growth inhibitory activity of Human stomach (adenocarcinoma) cell lines. KATO-III; format: functional, cell-based
HT-1080 = experiment: In vitro tumor cell growth inhibitory activity against Human fibrosarcoma HT1080 cell lines.; format: functional, cell-based
HCT-15 = experiment: In vitro tumor cell growth inhibitory activity against HCT-15; format: functional, cell-based; conditions: Homo sapiens
Mus musculus [14] = experiment: In vivo tumor cell growth inhibitory activity of H-81 tumor xenograft of stomach in nude mice at a concentration of 0.25 mg/kg for 10 days; format: functional
YMB-1-E = experiment: In vitro tumor cell growth inhibitory activity against Human breast (adenocarcinoma) cell lines YMB-1-E.; format: functional, cell-based
Mus musculus [15] = experiment: In vivo tumor cell growth inhibitory activity against DLD-1 tumor xenograft of […] in nude mice at a concentration of 15 mg/kg for 15 days; format: functional
Mus musculus [16] = experiment: In vivo tumor cell growth inhibitory activity of H-81 tumor xenograft of stomach in nude mice at a concentration of 15 mg/kg for 15 days; format: functional
Mus musculus [17] = experiment: In vivo tumor cell growth inhibitory activity against AZ-521 tumor xenograft of stomach in nude mice at a concentration of 15 mg/kg for 15 days; format: functional
Mus musculus [18] = experiment: In vivo tumor cell growth inhibitory activity against KM12C tumor xenograft of […] in nude mice at a concentration of 15 mg/kg for 15 days; format: functional
Mus musculus [19] = experiment: In vivo inhibitory activity against PAN-12 tumor xenograft of pancreas in nude mice at a concentration of 15 mg/kg for 15 days; format: functional
Mus musculus [20] = experiment: In vivo tumor cell growth inhibitory activity against JRC-11 cells tumor xenograft of renal in nude mice at a concentration of 15 mg/kg for 15 days; format: functional
Mus musculus [21] = experiment: In vivo inhibitory activity against BxPC-3 tumor xenograft of pancreas in nude mice at a concentration of 15 mg/kg for 15 days; format: functional
Mus musculus [22] = experiment: In vivo tumor cell growth inhibitory activity of CO-3 tumor xenograft of […] in nude mice at a concentration of 15 mg/kg for 15 days; format: functional
Mus musculus [23] = experiment: In vivo tumor cell growth inhibitory activity against Hucc-T1 cells tumor xenograft of bile duct in nude mice at a concentration of 15 mg/kg for 15 days; format: functional
Mus musculus [24] = experiment: In vivo tumor cell growth inhibitory activity against H-31 cells tumor xenograft of breast in nude mice at a concentration of 15 mg/kg for 15 days; format: functional

C#C[C@@]1(O)[C@@H](CO)O[C@@H](n2cnc3c(N)ncnc32)[C@@H]1O
IC50 (L1210): 690 nM
IC50 (KB): 830 nM

C#CC1(O)[C@@H](CO)O[C@@H](n2cc(F)c(=O)[nH]c2=O)[C@@H]1O (single isomer, unassigned)
IC50 (L1210): 2500 nM
IC50 (KB): 1400 nM

C#C[C@]1(O)[C@@H](CO)O[C@@H](n2ccc(N)nc2=O)[C@@H]1O
IC50 (HOS): 1000 nM
IC50 (NUGC-4): 24 nM
Inhibition ratio (Mus musculus [1]): 80%
IC50 (Lu-65): 32 nM
IC50 (PC-8): 90 nM
IC50 (T-24): 28 nM
Inhibition ratio (Mus musculus [2]): 76%
IC50 (fLS): 21 nM
IC50 [3]: 210 nM
IC50 (SW48): > 1900 nM
IC50 (L1210): 16 nM
IC50 (PANC-1): > 1900 nM
IC50 (QG-56): 45 nM
IC50 (NCI-H417): 43 nM
IC50 (MCF7): 69 nM
IC50 (A-431): 33 nM
IC50 (MKN-45 (Homo sapiens)): 8.8 nM
IC50 [4]: 150 nM
IC50 (ST-KM-1): 47 nM
IC50 (MG-63): 150 nM
Inhibition ratio (Mus musculus [5]): 84%
IC50 (NCI-H82 (Homo sapiens)): 120 nM
IC50 (NAKAJIMA): 170 nM
Inhibition ratio (Mus musculus [6]): 78%
IC50 (KK-47 cell line): 120 nM
Inhibition ratio (Mus musculus [7]): 88%
IC50 (MDA-MB-231): 24 nM
Inhibition ratio (Mus musculus [8]): 73%
IC50 (QG-96): 390 nM
IC50 (QG-90): 130 nM
IC50 (MKN-28): 210 nM
IC50 (PC10): 160 nM
IC50 (COLO 320DM): 20 nM
IC50 [9]: 15 nM
IC50 (SW480): 260 nM
Inhibition ratio (Mus musculus [10]): 55%
Inhibition ratio (Mus musculus [11]): 75%
IC50 (A-375): 26 nM
IC50 (PC-9): 110 nM
Inhibition ratio (Mus musculus [12]): 83%
IC50 [13]: 31 nM
IC50 (HT-1080): 73 nM
IC50 (HCT-15): 8.2 nM
Inhibition ratio (Mus musculus [14]): 92%
IC50 (KB): 28 nM
IC50 (YMB-1-E): 160 nM

O=c1[nH]cc(F)c(=O)[nH]1 [FLUOROURACIL]
Inhibition ratio (Mus musculus [15]): 50%
Inhibition ratio (Mus musculus [16]): 83%
Inhibition ratio (Mus musculus [17]): 25%
Inhibition ratio (Mus musculus [18]): 59%
Inhibition ratio (Mus musculus [19]): 40%
Inhibition ratio (Mus musculus [20]): 69%
Inhibition ratio (Mus musculus [21]): 50%
Inhibition ratio (Mus musculus [22]): 49%
Inhibition ratio (Mus musculus [23]): 1%
Inhibition ratio (Mus musculus [24]): 68%

C#CC1(O)[C@@H](CO)O[C@@H](n2cnc3c(O)nc(N)nc32)[C@@H]1O (single isomer, unassigned)
IC50 (L1210): > 300000 nM
IC50 (KB): > 300000 nM

C#C[C@@]1(O)[C@@H](CO)O[C@@H](n2cc(C)c(=O)[nH]c2=O)[C@@H]1O
IC50 (L1210): > 300000 nM
IC50 (KB): > 300000 nM

C#C[C@]1(O)[C@@H](CO)OC(n2cc(F)c(N)nc2=O)[C@@H]1O (single isomer, unassigned)
IC50 (L1210): 530 nM
IC50 (KB): 460 nM
